SMILES strings stand for the structures. Where two headings read alike, the source gives them in different places.

Format in all cases: cell-based
Series [1] has as its system human LINE-1. Put plainly: Human LINE-1 retrotransposition assay (dual luciferase pYX017 reporter, HeLa cells, Table 11). As for the experimental part:
Assays were performed as described in Xie et al., 2011^151 with several modifications. The reporter assay was performed in 96 well white Optical bottom plates. 6000 HeLa cells were seeded in each well 24 hours prior transfection and compound treatment. All compounds were resuspended in DMSO. Stock solution concentrations varied from 50 mM to 1.25 mM depending of the solubility of the compound. Serial dilutions (1:3) were prepared in DMSO. Ten different concentrations of each compound were tested in triplicate. Medium containing different concentrations of the compounds were prepared by adding 2 μL of the compound dilution to 1 mL of the culture medium. The final concentration of DMSO in the medium was 0.2%. FuGENE® HD transfection reagent (Promega) was used to transfect the plasmid pYX016 into the cells. The transfection mix was prepared in OpiMEM (Thermo Fisher) using a reagent to DNA ratio of 3.5:1 according to manufacturer's instructions. Culture medium was removed from the cells and discarded. The transfection mix (5 μL) was mixed with the compound containing medium (100 μL/well) and this was added onto the cells of each well. Cells were incubated for 48H at 37° C./5% CO2. Luciferase reporter activity was quantified with the Dual-Luciferase® Reporter Assay System (Promega) according to manufacturer's instructions for multiwell plates with the following modification: Cells were lysed directly on the multiwell plate with 30 μL of the passive lysis buffer (PLB) for 20 min at room temperature, with gentle shaking to ensure complete cell lysis (instead of 20 μL of PLB for 15 min). Firefly and Renilla luciferase signals were measured using a SpectraMax i3x Multi-Mode Microplate Reader. […] Relative L1 activity was calculated as Firefly/Renilla *10,000. […] The experiment was performed twice, independently. […] Because the human construct yields a lower signal, compounds were incubated with cells for 72 hours instead of 48 hours, and cells were seeded at a density of 2000/well instead of 6000/well. In addition, the transfection reagent to DNA ratio was 2:1 instead of 3.5:1.

The test system of series [2] is HeLa cells. Put plainly: Cell viability assay (CellTiter-Glo). Conditions: doses up to 2 μM. The procedure:
As described above, the toxicity of RTIs could impair their ability to halt or block the harmful effects of senescent cells and their ability to prevent or reverse age-related inflammation and disorders.
HeLa cells were treated with the different concentrations of the eight RTI compounds for 48 hours. Cell viability was measured with CellTiter-Glo® luminescent cell viability assay (Promega®) and presented as percentage of cell viability versus untreated cells. Staurosporine, known to induce cell death, was used as a control.
(In general: Cellular ATP, detected with luciferase, serves as a proxy for viable cell number.)

Series [3] concerns mouse LINE-1. The series is described as follows: Mouse LINE-1 retrotransposition assay (dual luciferase pYX016 reporter, HeLa cells). As for the experimental part:
Elvucitabine was obtained by custom synthesis. […] HeLa cervical cancer cells were cultivated at 37° C. in a humidified 5% CO2 incubator in Dulbecco's Modified Eagle's Medium (DMEM)-high glucose, with 4500 mg/L glucose, L-glutamine, sodium pyruvate and sodium bicarbonate (Sigma), supplemented with 10% of heat inactivated fetal bovine serum (Thermo Fisher). Assays were performed as described in Xie et al., 2011^151 with several modifications. The reporter assay was performed in 96 well white Optical bottom plates. 6000 HeLa cells were seeded in each well 24 hours prior transfection and compound treatment. All compounds were resuspended in DMSO. Stock solution concentrations varied from 50 mM to 1.25 mM depending of the solubility of the compound. Serial dilutions (1:3) were prepared in DMSO. Ten different concentrations of each compound were tested in triplicate. Medium containing different concentrations of the compounds were prepared by adding 2 μL of the compound dilution to 1 mL of the culture medium. The final concentration of DMSO in the medium was 0.2%. FuGENE® HD transfection reagent (Promega) was used to transfect the plasmid pYX016 into the cells. The transfection mix was prepared in OpiMEM (Thermo Fisher) using a reagent to DNA ratio of 3.5:1 according to manufacturer's instructions. Culture medium was removed from the cells and discarded. The transfection mix (5 μL) was mixed with the compound containing medium (100 μL/well) and this was added onto the cells of each well. Cells were incubated for 48H at 37° C./5% CO2. Luciferase reporter activity was quantified with the Dual-Luciferase® Reporter Assay System (Promega) according to manufacturer's instructions for multiwell plates with the following modification: Cells were lysed directly on the multiwell plate with 30 μL of the passive lysis buffer (PLB) for 20 min at room temperature, with gentle shaking to ensure complete cell lysis (instead of 20 μL of PLB for 15 min). Firefly and Renilla luciferase signals were measured using a SpectraMax i3x Multi-Mode Microplate Reader. […] Relative L1 activity was calculated as Firefly/Renilla *10,000. […] The experiment was performed twice, independently.

The term IC50 denotes the concentration at which inhibition is half-maximal. For the molecule `Nc1nc(=O)n([C@@H]2C=C[C@H](CO)O2)cc1F` [Elvucitabine], the IC50 was 0.094 µM in series [1] (pYX017, 72 H post-transfection, read-out: Human L1 activity inhibition IC50, Exp. 1); about 0.1 µM in series [1] (read-out: human L1 inhibition IC50); 0.116 µM in series [3] (pYX016, 48 H post-transfection, read-out: Mouse L1 activity inhibition IC50, Exp. 1); 0.106 µM in series [3] (pYX016, 48 H post-transfection, read-out: Mouse L1 activity inhibition IC50, Exp. 2); 0.111 µM in series [3] (pYX016, 48 H, n = 2, read-out: Mouse L1 activity inhibition IC50, Average); about 0.1 µM in series [3] (read-out: mouse L1 inhibition IC50). Also, the “toxicity in the cell viability assay” value in series [2] is “without inducing toxicity”.

Source of the values: patent US12246022B2, “Compositions and methods for treating, preventing or reversing age associated inflammation and disorders” (BROWN UNIVERSITY, priority 2019, dated 2025).
